As a reminder, the inhibition is the percentage by which the read-out fell short of the control.

Experiment [1] deals with four dental plaque organisms. Nature of the experiment: Antibacterial effect on the four dental plaque organisms (summary in words). It is filed as cell-based. Particulars: solutions without TCHE. As to the method: Slurries and solutions described below are prepared to determine effectiveness in terms of minimum inhibitory concentration (MIC) of various antibacterial agents against a variety of oral bacterial organisms implicated in formation of plaque and leading to gingivitis on dental surfaces. Soft plaque contains about 1.7×10^11 organism/gm. (net weight). The antibacterial agents are admixed with anionic materials, particularly anionic surface active agent often commonly employed in oral compositions and polyphosphate anticalculus agent.
Minimum inhibitory concentration (MIC) of antibacterial agent is used to evaluate the efficacy of the agent in vitro. […] The smaller the MIC value the greater is the efficacy of the antibacterial agent to inhibit the growth of the bacteria. The in vitro MIC data is related to the efficacy of the dentifrice in vivo since retention and release of antibacterial agent into the oral cavity after toothbrushing is in the range of mcg/ml.

A short description of experiment [2]: Human clinical tests, reduction of plaque formation. Type of experiment: in vivo.
A short description of experiment [3]: Adsorption of TCHE to saliva coated tooth mineral hydroxyapatite. Particulars: for % of TCHE Adsorbed to Coated HA: 37°, 3 hours. On the set-up: species or system human. As to the method: The adsorption to and release from tooth minerals for antiplaque/ antitartar efficacy of agents is assessed by adsorption of antibacterial agent to saliva coated tooth mineral hydroxyapatite in the presence and the absence of pyrophosphate (soluble tetrasodium pyrophosphate)/Gantrez/NaF.
200 mg. of hydroxyapatite (HA) is treated with human saliva for 2 hours. The excess saliva is washed with a buffer and saliva coated HA is used for adsorption studies. Various concentrations of TCHE in SLS or in SLS/pyrophosphate/Gantrez/NaF are mixed with the coated HA and incubated at 37° for 3 hours under continuous agitation. At the end of incubation period, the mixtures are centrifuged, HA separated and the amounts of TCHE adsorbed determined by estimating TCHE in the supernatant at […] in a Gilford spectrophotometer. The amounts adsorbed are calculated by the difference between the amount added and the amount left in the supernatant after the incubation with coated HA. The table below summarizes the data.

Experiment [4] deals with Bacteriodes gingivalis. Briefly: Antibacterial activity of dentifrice extracts, inhibition of growth. It is filed as cell-based. The protocol:
The dentifrice described in Example 3A is compared with the same composition except without any TCHE and with added 0.50 parts of water. Aqueous extracts of each dentifrice are prepared as follows: 50 ml of distilled water is added to 1.0 gm of each dentifrice, mixed well for a couple of hours with stirring bar and centrifuged, after which the supernatant is collected as aqueous extract. Antibacterial activity of the dentifrice extracts are evaluated on Bacteriodes gingivalis.

As for `CCCCCCCCCCCCOS(=O)(=O)[O-].[Na+]` [SLS, sodium lauryl sulfate], the antibacterial effect result in experiment [1] was “ineffective”.

`CC(C)(C)CC(C)(C)c1ccc(OCCOCC[N+](C)(C)Cc2ccccc2)cc1` [BTC, benzthonium chloride]: the reducing plaque formation result was “is not” in experiment [2] (0.075% BTC and 1% pyrophosphate dissolved in water); “effective in reducing plaque formation” in experiment [2] (0.075% BTC dissolved in water).

As to `[H]/N=C(\N/C(=N/[H])NCCCCCCNC(=N)NC(=N)Nc1ccc(Cl)cc1)Nc1ccc(Cl)cc1` [CH, chlorhexidine digluconate], the reducing plaque formation entry is listed as “is not” in experiment [2] (0.1% CH and 1% sodium N-lauroyl sarcosinate dissolved in water); “effective in reducing plaque formation” in experiment [2] (0.1% CH dissolved in water).

As to `Oc1cc(Cl)ccc1Oc1ccc(Cl)cc1Cl` [TCHE, 2,4,4'-trichloro-2'-hydroxydiphenyl ether], the “% of TCHE Adsorbed to Coated HA” value in experiment [3] (0.005% TCHE in 1% SLS, 0.5% Gantrez, 2% pyrophosphate/0.24% NaF) was 80%; in experiment [3] (0.005% TCHE in 1% SLS), 80%; in experiment [3] (0.01% TCHE in 1% SLS, 0.5% Gantrez, 2% pyrophosphate/0.24% NaF), 85%; in experiment [3] (0.01% TCHE in 1% SLS), 85%; in experiment [3] (0.015% TCHE in 1% SLS, 0.5% Gantrez, 2% pyrophosphate/0.24% NaF) it was 86%; in experiment [3] (0.015% TCHE in 1% SLS) it was 85%. Further, the “% of TCHE Adsorbed to Coated HA” value in experiment [3] (0.02% TCHE in 1% SLS, 0.5% Gantrez, 2% pyrophosphate/0.24% NaF) is 87%; in experiment [3] (0.02% TCHE in 1% SLS), 88%. Further, the “effect of addition of pyrophosphate/Gantrez/NaF on adsorption of TCHE to saliva coated tooth minerals” value in experiment [3] (with vs without pyrophosphate/Gantrez/NaF) is reported as “does not impair adsorption”. Moreover, the “compatibility in dentifrice composition containing anionic surfactant plus pyrophosphate with Gantrez and NaF” value in experiment [4] (from growth inhibition by dentifrice extracts) is given as “compatible”. Moreover, in experiment [4] (read-out: Inhibition of Growth of Bacteriodes Gingivalis), the inhibition at 5 µg/mL was 100%.
